The source made the active and inactive calls.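 Rule for the calls: active = a tumor-causing dose value with its tumor site reported for any sex and species group of a rodent or other animal cancer study; inconclusive = only studies judged inadequate by the national testing program; inactive = tested in at least one study, none positive.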 Numbered stars: 1 amine (or outer) side, 2 acyl side, 3 side chain; on linkers, the order of the positions; unused ones are H or OH. Bridge positions count the residues as written; N and C are the ends. Square brackets hold non-standard residues; d marks the D form. Peptide text beside a SMILES is read from it. I, II: the chains in the order shown. Actinocin(1to9) = Cc1c2oc3c(C)ccc(C(=O)[*:2])c3nc-2c(C(=O)[*:1])c(N)c1=O; d(aIle) = CC[C@H](C)[C@@H](N)C(=O)O; NMeV = CN[C@H](C(=O)O)C(C)C; Sar = CNCC(=O)O

This passage reports outcome results from PubChem BioAssay AID1189 (EPA DSSTox, 2008).

The data set is described as follows: DSSTox (CPDBAS) Carcinogenic Potency Database Summary SingleCellCall Results. As to conditions: animal chronic carcinogenicity bioassays, CPDB summary call. The method, boiled down:
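Literature-derived summary: each substance receives an overall carcinogenic/non-carcinogenic category drawn from long-term bioassays in rats, mice, hamsters, dogs or primates, using the most positive sex-species experiment and minimal evidence criteria.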
As to `[Cl-].[Cl-].[Cl-].[Fe+3]`, the outcome was inactive.

With `ClCCl`, the result was active.

With `COc1ccc2nc(S(=O)Cc3ncc(C)c(OC)c3C)[nH]c2c1` (stereo not given), the outcome was active.

With `NC(=S)NNC(N)=S`, the result was inactive.

As for `CCN(CC)c1ccc(N=Nc2cc[n+]([O-])cc2)cc1`, the outcome was active.

As for `CC(=O)O[C@]1(C(C)=O)CC[C@H]2[C@@H]3C=C(Cl)C4=CC(=O)[C@@H]5C[C@@H]5[C@]4(C)[C@H]3CC[C@@]21C`, the outcome is “active; inactive”.

In the case of `CCOP(=S)(OCC)Oc1ccc([N+](=O)[O-])cc1`, the outcome was “inactive; active”.

As for `O=P1(NCCCl)OCCCN1CCCl` (stereo not given), the outcome was “active; inactive”.

As for `O=C1c2ccccc2C(=O)c2ccccc21`, the outcome was inactive.

In the case of `Clc1cc(Cl)cc(-c2cc(Cl)cc(Cl)c2)c1`, the outcome was inactive.

As for `Cc1cc2c(nc1N)[nH]c1ccccc12`, the outcome was active.

As to `CNC(=O)c1c(N(C)N=O)ncn1C`, the result was active.

Take `Nc1ccc2c(n1)[nH]c1ccccc12`: the outcome was active.

Take `CN(N=O)c1ccccc1`: the outcome was active.

Consider `CC/C(C)=N/O`, for which the outcome is “active; inactive”.

In the case of `C1CCOC1`, the outcome is “active; inactive”.

For `C[C@H]([C@H](O)CCC(C)(C)O)[C@H]1CC[C@@]2(O)C3=CC(=O)[C@@H]4C[C@@H](O)[C@@H](O)C[C@]4(C)[C@H]3CC[C@]12C`, the outcome is “active; inactive”.

In the case of `CC1CN(N=O)CC(C)N1N=O` (stereo not given), the result was active.

`C=C(Cl)CSC(=S)N(CC)CC`: the outcome is “active; inactive”.

Consider `c1ccccc1`, for which the outcome was active.

For `S=C(S)NCCNC(=S)S`, the result was inactive.

`CN(N=O)c1ccc(N=O)cc1`: the result was active.

In the case of `O=S(=O)(O)c1ccc2c(N=Nc3ccc(S(=O)(=O)O)c4ccccc34)c(O)c(S(=O)(=O)O)cc2c1`, the result was active.

For the compound `COc1cc(OC)c2c3c(c(=O)oc2c1)CCC3=O`, the outcome was inactive.

In the case of `CC(=O)NNc1ccccc1`, the result was active.

As to `C[N+](C)(C)CCCl`, the outcome was inactive.

As for `N#CC(c1ccccc1)c1ccccc1`, the result was inactive.

For `CC(O)CCl` (stereo not given), the outcome is “inactive; active”.

As to `CCN(CC)C(=S)S`, the outcome was “inactive; active”.

Consider `CC(=O)Nc1ccc(O)cc1`, for which the outcome is “active; inactive”.

`COC(C)(C)C`: the outcome was active.

Consider `Cc1c2ccccc2c(C)c2c1ccc1ccccc12`, for which the outcome is “active; inactive”.

For the compound `CN(N=O)C(=O)c1ccccc1`, the outcome is “active; inactive”.

On to `Cc1nc(N)cc2[nH]c3ccccc3c12`, for which the result was active.

For `C=CCc1ccc(OC)c(OC)c1`, the outcome was “active; inactive”.

Turning to `Nc1c(Cl)cc([N+](=O)[O-])cc1Cl`, the result was inactive.

As for `OC(c1ccc(Cl)cc1)(c1ccc(Cl)cc1)C(Cl)(Cl)Cl`, the result was active.

As to `O=C(O)c1ccc(N=Nc2ccc(O)c(C(=O)O)c2)cc1`, the outcome was inactive.

For the compound `C=CCOCC1CO1` (stereo not given), the result was active.

As to `CC[C@H](C)C(=O)O[C@H]1C[C@@H](C)C=C2C=C[C@H](C)[C@H](CC[C@@H]3C[C@@H](O)CC(=O)O3)[C@H]21`, the outcome was “active; inactive”.

As to `COC(=O)C(C)(C)Oc1ccc(-c2ccc(Cl)cc2)cc1`, the outcome was active.

`Cc1ccc(-c2cc(C(F)(F)F)nn2-c2ccc(S(N)(=O)=O)cc2)cc1`: the outcome was inactive.

`CC(=O)N[C@@H](CS)C(=O)O`: the result was inactive.

On to `O=C(c1ccccc1)C(O)c1ccccc1` (stereo not given), for which the outcome was “inactive; active”.

As for `NC(N)=S`, the outcome was “active; inactive”.

With `C1OC1C1CO1` (stereo not given), the result was inactive.

Turning to `CC1=CC(C)(C)N(N=O)c2ccccc21`, the result was active.

Take `Cn1cc[nH]c1=S`: the outcome is “active; inactive”.

Regarding `CC1=C(/C=C/C(C)=C/C=C/C(C)=C/C(=O)O)C(C)(C)CCC1`, the outcome was inactive.

Take `CCSCC[C@H](N)C(=O)O`: the outcome is “active; inactive”.

Take `Cc1ccc(S(=O)(=O)OCCN(C)N=O)cc1`: the outcome was active.

In the case of `Cn1c(N)nc2c3cccnc3ccc21`, the outcome was “active; inactive”.

Regarding `CC(C)=CCl`, the outcome was active.

Regarding `C[C@]12C/C(=C/O)C(=O)C[C@@H]1CC[C@@H]1[C@@H]2CC[C@@]2(C)[C@H]1CC[C@]2(C)O`, the result was active.

For `O=C(O)c1cc(Oc2ccc(C(F)(F)F)cc2Cl)ccc1[N+](=O)[O-]`, the outcome was active.

In the case of `NNc1nc(-c2ccc([N+](=O)[O-])o2)cs1`, the outcome was “active; inactive”.

Turning to `C/[N+]([O-])=N/CO[C@@H]1O[C@H](CO)[C@@H](O)[C@H](O)[C@H]1O`, the outcome was active.

As to `FCCl`, the outcome was active.

In the case of `O=C(O)COc1ccc(Cl)cc1Cl`, the result was inactive.

For the compound `CC(=O)N(O)c1ccc2c(c1)Cc1ccccc1-2`, the outcome is “active; inactive”.

In the case of `Clc1ccccc1Cl`, the result was inactive.

In the case of `c1ccc(-c2ccccc2)cc1`, the outcome was “inactive; active”.

On to `FC(F)(Cl)Cl`, for which the outcome was inactive.

In the case of `CCCCCCOc1cc(C)c(O)c(C)c1C`, the outcome is “inactive; active”.

`O=C1O[C@H]([C@H](O)CO)C(O)=C1O`: the outcome is “inactive; active”.

Consider `O=NN(c1ccccc1)c1ccccc1`, for which the outcome is “active; inactive”.

As for `Cc1ccccc1OCC(O)CNCCn1cc(C)c(=O)[nH]c1=O` (stereo not given), the result was inactive.

`COC(=O)[C@H]1[C@H]2C[C@@H]3c4[nH]c5ccccc5c4CCN3C[C@H]2C[C@@H](OC(=O)c2cc(OC)c(OC)c(OC)c2)[C@@H]1OC`: the outcome was inactive.

With `C/C=N/O`, the outcome was inactive.

In the case of `CCOP(=S)(OCC)Oc1nc(Cl)c(Cl)cc1Cl`, the result was inactive.

On to `CC(N)Cc1ccccc1` (stereo not given), for which the outcome was inactive.

With `Cc1cccc2cccnc12`, the outcome was inactive.

For the compound `N[C@@H](Cc1cnc[nH]1)C(=O)O`, the result was inactive.

Take `CC(C)OC(=O)Nc1cccc(Cl)c1`: the outcome was “inactive; active”.

As for `CN(C)NC(=O)CCC(=O)O`, the result was active.

As for `CC(=O)Nc1nc(-c2ccc([N+](=O)[O-])o2)cs1`, the outcome was active.

Consider `CCCN(CCC)c1c([N+](=O)[O-])cc(C(F)(F)F)cc1[N+](=O)[O-]`, for which the result was active.

As for `CC(=O)CN(N=O)C(=O)NCCCl`, the outcome was active.

Take `Nc1ccc(O)c([N+](=O)[O-])c1`: the outcome was active.

As for `O.O.O.O.O.O.O=S(=O)([O-])[O-].[Ni+2]`, the outcome was inactive.

Turning to `CCCCC(CC)COP(=O)(OCC(CC)CCCC)OCC(CC)CCCC` (stereo not given), the result was active.

As to `CNNC`, the result was active.

Regarding `CCOC(=O)N(CC)N=O`, the outcome was “active; inactive”.

On to `CCC1(c2ccccc2)C(=O)NC(=O)NC1=O`, for which the result was active.

`Cn1cc(C(=O)[C@@H]2CCc3nc[nH]c3C2)c2ccccc21`: the outcome was “inactive; active”.

As to `CC(O)C(=O)O` (stereo not given), the result was inactive.

Consider `CN(C)C=O`, for which the outcome was “inactive; active”.

Turning to `Cn1cnc([N+](=O)[O-])c1Sc1ncnc2nc[nH]c12`, the outcome was active.

With `COC1[C@@H](O[C@@H]2O[C@H](C)[C@@H](O[C@H]3C[C@@](C)(O)[C@H](OC(=O)CC(C)C)[C@H](C)O3)[C@H](N(C)C)[C@H]2O)[C@@H](CC=O)C[C@@H](C)[C@@H](O)/C=C/C=C/C[C@@H](C)OC(=O)C[C@H]1OC(C)=O` (stereo not given in full), the outcome was “inactive; active”.

`Oc1ccc(-c2ccccc2)cc1`: the outcome is “inactive; active”.

Take `NS(=O)(=O)c1cc(C(=O)O)c(NCc2ccco2)cc1Cl`: the outcome is “active; inactive”.

As to `CC[C@H](C)[C@H]1NC(=O)[C@@H](NC(=O)c2c3nc4c(C(=O)N[C@@H]5C(=O)N[C@H](C(C)C)C(=O)N6CCC[C@H]6C(=O)N(C)CC(=O)N(C)[C@@H](C(C)C)C(=O)O[C@@H]5C)ccc(C)c4oc-3c(C)c(=O)c2N)[C@@H](C)OC(=O)[C@H](C(C)C)N(C)C(=O)CN(C)C(=O)[C@@H]2CCCN2C1=O` (I: T[d(aIle)]P[Sar][NMeV] / II: T[dV]P[Sar][NMeV]; ester I:1-I:C, II:1-II:C; linker I:N-II:N via Actinocin(1to9)), the result was inactive.

As for `CCC[CH2][Sn]([CH2]CCC)([O]C(C)=O)[O]C(C)=O`, the outcome was inactive.

Regarding `CCCCOCCO`, the result was active.

On to `CC[C@H](OC(C)=O)C(C[C@H](C)N(C)C)(c1ccccc1)c1ccccc1`, for which the result was active.

Take `O=NN(CCO)C(=O)NCCCl`: the outcome was active.

On to `CC(O)CNC(=O)N(N=O)C(C)Cl` (stereo not given), for which the outcome was active.

`ClC1=C(Cl)[C@]2(Cl)[C@@H]3[C@H]4C[C@H]([C@@H]5O[C@H]45)[C@@H]3[C@@]1(Cl)C2(Cl)Cl`: the result was inactive.

Regarding `CC(Oc1ccc(Cl)cc1Cl)C(=O)O` (stereo not given), the outcome was inactive.

With `CNC(=O)CSP(=S)(OC)OC`, the outcome was inactive.

Turning to `O=C(O)CNCC(=O)O`, the outcome was inactive.

With `Nc1ccc(N)c2c1C(=O)c1c(N)ccc(N)c1C2=O`, the result was active.

Take `O=C(Nc1ccc2c(c1)Cc1ccccc1-2)C(F)(F)F`: the outcome was active.

On to `O=C1OC(C(O)CO)C(O)=C1O` (stereo not given), for which the outcome was inactive.

As for `ClC1=C(Cl)[C@]2(Cl)[C@@H]3[C@@H]4C[C@@H]([C@H]5O[C@@H]45)[C@@H]3[C@@]1(Cl)C2(Cl)Cl`, the result was active.
